20 molecules from PubChem BioAssay (NCI) can be followed below.

Molecules are shown by their SMILES.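 Growth conditions: 96-well plates. Treatment: test compound, 48 hours, 5 concentrations. Analysis: linear interpolation between bracketing concentrations; unreached endpoints set to highest concentration. Abbreviation: GI50, concentration required for 50% inhibition of growth. TGI: total growth inhibition.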

Among the test systems are BT-549 breast; MCF7 breast; PC-3 prostate; MDA-N.
Assay in all cases: NCI-60 cell line screen, 48 h

With `COc1cccc(N=Cc2c3ccccc3c(=O)n3c2oc2ccccc23)c1`, the figures for the GI50 with BT-549 breast, in the assay with MCF7 breast and in the assay on PC-3 prostate were 21.9 µM, 4.06 µM and 3.81 µM, respectively. Moreover, the results for the TGI with BT-549 breast, with MCF7 breast and in the assay with PC-3 prostate were > 100 µM, > 100 µM and 39.6 µM, respectively.
On to `CCCNC(=S)N/N=C(\C)c1ccccn1`, for which the results for the GI50 in the assay with BT-549 breast, with MCF7 breast and with PC-3 prostate were 1.44 µM, < 0.01 µM and 0.0471 µM, respectively. For the same molecule, the TGI with BT-549 breast and in the assay with PC-3 prostate was > 100 µM each time.
Regarding `O=[N+]([O-])c1ccc2nnnn2c1`, the TGI in the assay with BT-549 breast, with MCF7 breast and in the assay on PC-3 prostate was > 100 µM throughout.
As to `O=C(O)C(Sc1ccc(Cl)cc1)Sc1ccc(Cl)cc1`, the TGI in the assay on BT-549 breast, in the assay with MCF7 breast, in the assay on MDA-N and with PC-3 prostate was > 100 µM throughout.
As to `COc1cc(Cn2c(-c3ccccc3)cc3c2-c2oncc2CC3)cc(OC)c1OC`, in the assay on MCF7 breast, the GI50 is 0.443 µM and the TGI turned out to be 22.3 µM. Further, in the assay on PC-3 prostate, the GI50 is 3.62 µM and the TGI is > 100 µM.
Take `COc1ccc(-n2cc(-c3cc(OC)c(OC)c(OC)c3)[nH]c2=S)cc1OC`: the GI50 in the assay on BT-549 breast, with MCF7 breast and in the assay on PC-3 prostate was > 100 µM in each case. Also, the TGI in the assay on BT-549 breast, with MCF7 breast and in the assay on PC-3 prostate was > 100 µM each time.
As for `COc1cc([C@@H]2c3cc4c(cc3C(O[C@@H]3O[C@@H]5CO[C@@H](c6cccs6)OC5[C@H](O)[C@H]3O)C3COC(=O)[C@@H]32)OCO4)cc(OC)c1O` (stereo not given in full), the values for the GI50 in the assay on BT-549 breast, with MCF7 breast and in the assay with PC-3 prostate were 0.0878 µM, 0.00975 µM and 0.51 µM, respectively. The results for the TGI in the assay on BT-549 breast, in the assay with MCF7 breast and with PC-3 prostate were 1.31 µM, 16.5 µM and 32.9 µM, respectively.
In the case of `NC(N)=NC(N)=Nc1cc2ccccc2c2ccccc12`, the GI50 with BT-549 breast was 10.5 µM; with MCF7 breast, 3.7 µM; in the assay on PC-3 prostate, 7.51 µM. The results for the TGI in the assay on BT-549 breast, in the assay on MCF7 breast and in the assay with PC-3 prostate were 22.8 µM, 18.8 µM and 24.9 µM, respectively.
Regarding `Cn1cc(C2=C(c3cn(C)c4c(N)cccc34)C(=O)NC2=O)c2ccccc21`, the GI50 in the assay on BT-549 breast is 1.01 µM; with MCF7 breast it was 0.673 µM; in the assay with PC-3 prostate, 1.37 µM. Also, the TGI in the assay on BT-549 breast was 6.66 µM; in the assay on MCF7 breast, > 20.9 µM; with PC-3 prostate, > 25 µM.
Consider `CCCCNC(=O)NS(=O)(=O)c1ccc(N2N=C(c3ccc(C)cc3C)CC2c2ccc(N(C)C)cc2)cc1` (stereo not given), for which the figures for the GI50 in the assay on BT-549 breast, in the assay on MCF7 breast and in the assay on PC-3 prostate were 4.11 µM, 2.63 µM and 3.34 µM, respectively. The values for the TGI in the assay on BT-549 breast, in the assay on MCF7 breast and in the assay on PC-3 prostate were 37.1 µM, > 100 µM and > 100 µM, respectively.
For the molecule `CC(=O)[O][Hg][c]1c(C)c(C)c(C)c(C)c1C`, the GI50 with BT-549 breast was 1.16 µM; with MCF7 breast it was 0.843 µM; in the assay with MDA-N it was 1.37 µM; in the assay with PC-3 prostate it was 2 µM. For the same molecule, the TGI was 2.38 µM in the assay on BT-549 breast, 2.13 µM with MCF7 breast, 2.69 µM in the assay on MDA-N and 5.68 µM in the assay with PC-3 prostate.
As to `COc1ccc(S(=O)(=O)N(Cc2ccc3c(n2)C=CC(C)(C)O3)C2CCC2)cc1OC`, the GI50 was < 0.01 µM in the assay on BT-549 breast, 0.0169 µM in the assay with MCF7 breast and < 0.01 µM with PC-3 prostate. Further, the TGI was 0.171 µM in the assay with BT-549 breast, > 38.2 µM with MCF7 breast and 2.37 µM in the assay on PC-3 prostate.
As to `N#C/C(C(=S)Nc1ccccc1)=C1/NN=C2c3ccccc3C(=O)NN21`, in the assay on BT-549 breast, the GI50 is 24.3 µM and the TGI worked out at 80 µM. In the assay on MCF7 breast, the GI50 was 22.8 µM and the TGI amounted to 77.5 µM.
For `COc1cc(-c2c(C#N)c(N)n3c(nc4ccccc43)c2C#N)cc(Br)c1OC`, the values for the GI50 in the assay with BT-549 breast and with PC-3 prostate were > 100 µM and 4.4 µM, respectively. Further, the TGI in the assay with BT-549 breast and in the assay with PC-3 prostate was > 100 µM in each case.
Consider `Cn1cc(C2=C(c3cn(CCCN=C(N)N)c4ccccc34)C(=O)NC2=O)c2ccccc21`, for which the GI50 is > 25 µM in the assay with BT-549 breast, > 25 µM in the assay on MCF7 breast and > 23.1 µM with PC-3 prostate. The TGI with BT-549 breast, in the assay with MCF7 breast and in the assay on PC-3 prostate was > 25 µM each time.
On to `O=C(C[C@@H](C(=O)NCc1cccc(C(F)(F)F)c1)N1C(=O)[C@@H](N2C(=O)OC[C@@H]2c2ccccc2)[C@H]1/C=C/c1ccccc1)NC1CCN(Cc2ccccc2)CC1`, for which the GI50 was 2.96 µM in the assay with BT-549 breast, 1.61 µM in the assay with MCF7 breast and 6.06 µM with PC-3 prostate. The TGI came out at 8.81 µM with BT-549 breast, 3.51 µM in the assay on MCF7 breast and 20.8 µM with PC-3 prostate.
For the molecule `COc1ccc(C(=O)/C=C/c2cccnc2Nc2cc(OC)c(OC)c(OC)c2)cc1`, the figures for the GI50 in the assay with BT-549 breast, in the assay on MCF7 breast and in the assay on PC-3 prostate were 3.1 µM, 0.106 µM and 1.53 µM, respectively. For the same molecule, the results for the TGI in the assay on BT-549 breast, in the assay with MCF7 breast and with PC-3 prostate were 11.6 µM, 11 µM and 10.1 µM, respectively.
For the molecule `CC(C)(C)OC(=O)N(CCCN(CCn1c2c(c3ccccc3c1=O)C(=O)c1ccccc1-2)C(=O)OC(C)(C)C)CCn1c2c(c3ccccc3c1=O)C(=O)c1ccccc1-2`, the GI50 in the assay on BT-549 breast, with MCF7 breast and in the assay on PC-3 prostate was > 50 µM throughout. Further, the TGI with BT-549 breast, with MCF7 breast and in the assay on PC-3 prostate was > 50 µM in each case.
In the case of `C[C@]12CC[C@@H]3c4ccc(O)cc4CC[C@H]3[C@@H]1CC[C@@H]2NS(=O)(=O)c1ccc(C(F)(F)F)cc1`, the GI50 in the assay with BT-549 breast is 1.7 µM; in the assay on MCF7 breast, 2.26 µM; in the assay on PC-3 prostate, 1.99 µM. Besides, the figures for the TGI with BT-549 breast, in the assay with MCF7 breast and in the assay on PC-3 prostate were 3.2 µM, 5 µM and 5.24 µM, respectively.
Turning to `COc1cc(C(=O)O[C@H](C(N)=O)[C@]2(C)CO2)c2ccccc2c1`, the GI50 in the assay with BT-549 breast is 18.5 µM; with MCF7 breast it was 27.3 µM; in the assay with PC-3 prostate, 25 µM. Besides, the TGI is 38.9 µM in the assay with BT-549 breast, > 100 µM with MCF7 breast and > 100 µM in the assay on PC-3 prostate.
